Columns and labels:
hECE cells = experiment: Cell-vitality staining (MTT assay); assay type: cell-based, human; details: Steroid-Free Medium + substance, means ±SD, 3 to 4 repeats
Experimental: Cell-vitality staining was done using the 3-[4,5-dimethylthiazol-2-yl]-2,5-diphenyl tetrazolium bromide (MTT) assay. MTT serves as a substrate for mitochondrial dehydrogenases, and only viable functional mitochondria are capable of cleaving MTT to generate the colored product formazan. MTT solution was prepared by dissolving MTT at a concentration of 5 mg/ml in phosphate-buffered saline (PBS) composed of (mM) NaCl (137), KCl (2.68), Na2HPO4 (10), KH2PO4 (1.76), pH 7.4, and filtering the solution through Millipore filter. Following treatments/assays, cells on filters were washed with fresh and warm (37° C.) PBS and incubated for 60 min at 37° C. in MTT solution. At the completion of incubation, cells were washed with PBS, and solubilized in isopropanol containing 0.1 M HCl plus 1% Triton X-100. Lysates were mixed by pipetting to dissolve the reduced MTT crystals (during which time the colorless solution turned purple) and were spinned at 10,000 g for 5 min. The solubilized formazan was measured by determining absorption at 570 nm. Background absorbance at 690 nm was subtracted for each sample, and values were normalized to OD570 (optic density) of control unperturbed cells.

Human Endocervical Cells = experiment: Determinations of extracellular pH (pHo) in luminal and contra-luminal solutions of Human Endocervical Cells cultured on filters; assay type: cell-based; details: steroid-free medium and treatment with 10 nM estradiol, no effect
Experimental: Primary cultures of Human Endocervical Cells were obtained through Clonetics (Walkersville, Md.). Cells chosen for experiments were those obtained from tissues of two women reported as HPV negative, and the cultured Endocervical Cells were tested for mycoplasma. Primary Endocervical cultures were grown and subcultured into second passage using Clonetics proprietary Endocervical Medium (supplied with the cells), and thereafter maintained in hECE culture medium. Cells were characterized as epithelial cells based on typical morphology of a monolayered epithelium; the expression of involucrin; lack of expression of vimentin; and expression of tight junctions (not shown). […] The cells were defined as phenotypically endocervical (in contrast to ectocervical/vaginal) based on expression of apical villi, the abundant expression of cytokeratins 18/19, and minimal expression of cytokeratins 4/5 and 13. Both hECE cells and the Human Endocervical Cells (not shown) expressed functional estrogen receptors. […]
Plates containing the filters were placed in a tissue culture incubator (37° C.), and pHo changes in the luminal and contra-luminal solutions were determined using AMANI-1000 microcombination pH electrodes 306 (Harvard Apparatus, Holliston, Mass., obtained through Genomics Solutions, Ann Harbor, Mich.). […]

[1] = system: hECE cells (Human Ectocervical-Vaginal Epithelial Cells); experiment: Determinations of extracellular pH (pHo) in luminal and contra-luminal solutions of hECE cells cultured on filters; assay type: cell-based
Experimental: Referring to FIG. 4A, hECE cells or Human Endocervical Cells were plated on Anocell filters (Anocel™-10, Oxon, UK, obtained through Sigma Chemicals, St. Louis, Mo.), which are ceramic-base filters, pore size of 0.02 μm width, 50 μm depth, and surface area of 0.6 cm^2. Filters 300 and 302 were coated with 4 μg/cm^2 collagen type IV and incubated at 37° C. overnight. The remaining collagen solution was aspirated and the filter was dried at 37° C. Before plating, filters 300 were rinsed 3 times with Hanks' Balanced Salt Solution. Cells were plated either on the upper surface 302 of one filter 300 (for determinations of luminal pHo) or on the bottom surface 304 of the other filter 300 (for determinations of the contra-luminal pHo) at 3·10^5 cells/cm^2. By plating at this relatively high density the cultures became confluent within 12 hours after plating.
Plates containing the filters were placed in a tissue culture incubator (37° C.), and pHo changes in the luminal and contra-luminal solutions were determined using AMANI-1000 microcombination pH electrodes 306 (Harvard Apparatus, Holliston, Mass., obtained through Genomics Solutions, Ann Harbor, Mich.). The AMANI-1000 pH sensor (stored in pH 7.0) is based on metal-metal oxide pH measurements and the pH sensitive layer is immobilized on plastic. The reference electrode employs an Ag/AgCl in 3.4 M KCl reference electrode, and the reference electrode junction is leak-free ensuring no leaks of KCl out of the reference electrode. The design of the pH electrodes 306 enabled their use for the purpose of the present experiments: tip diameter of 1 mm, depth of immersion 1 mm, and response time of less than 5 sec.
Electrodes 306 attached to a stand were held stable with the tip immersed in the solution within the upper compartment of the filter to a depth of about 2 mm avoiding direct contact between the electrode tip and the cultured cells. The electrodes were connected directly to a pH meter 310 (e.g., Accumet pH meter 910) (Fisher Scientific, Suwanee Ga.). After stabilization, the luminal and contraluminal solutions were gently aspirated using glass pipette, and replaced with fresh warmed (37° C.) Basic Salt Solution containing (in mM) NaCl (140), KCl (5), MgCl2 (1), CaCl2 (1), glucose (10), and 0.1% bovine serum albumin, pH 7.4. The volumes in the luminal and contraluminal compartments were 150 μl and 500 μl, respectively. Determinations of changes in pHo were made at time 0, and at 5 min intervals thereafter for up to 30 min.
To remove intracellular estrogens cells were grown in steroid-free medium as described. This procedure involved shifting cells on filters for three days prior to pHo assays to a medium composed of phenol-red-deficient (DMEM)/Ham's F12 or (Sigma Chemicals, St. Louis, Mo.) containing 8% heat inactivated fetal bovine serum that was previously treated with charcoal to remove steroids. Preparation of charcoal-treated serum was described; briefly, dextran-coated charcoal (Sigma Chemicals, St. Louis, Mo.) was dissolved at 8% in 0.15 M NaCl, autoclaved, mixed by stirring, spun and the pellet was resuspended as 1 gm/1.25 ml in H2O. Fetal bovine serum (Hyclone, Logan, Utah) was mixed with the activated charcoal-dextran at 20:1 (Vol:Vol) and incubated for 45 min at 55° C. At the completion of incubation the mixture was spun twice at 800 g for 20 min and the supernatant (serum) was decanted and collected. For experiments, cells were shifted to steroid-free medium for 3 days; alternatively, cells were shifted to the steroid-free medium for 24 hrs and treated with 17β-estradiol for two additional days.

**Q.** How did the “hECE cell vitality (MTT staining normalized to OD570 of control unperturbed cells), Baseline” value (hECE cells; Baseline) turn out when C[C@]12CC[C@@H]3c4ccc(O)cc4CC[C@H]3[C@@H]1CC[C@@H]2O [17β-estradiol] was run?
**A.** 96 ± 3%

**Q.** What about the “hECE cell vitality (MTT staining normalized to OD570 of control unperturbed cells), 30 min pHo” value (hECE cells; after 30 min pHo measurement) of the same molecule?
**A.** 94 ± 4%

**Q.** What about the “contra-luminal pHo or luminal pHo” value (Human Endocervical Cells) of the same molecule?
**A.** around 7.25

**Q.** What about the EC50 ([1]; Homo sapiens, Epithelial cell, hECE cells grown in steroid-free medium, dose response FIG. 8B, read-out: EC50 of decrease in luminal pHo) of the same molecule?
**A.** ~0.5 nM

**Q.** And the “luminal pHo” value ([1]; hECE cells in steroid-free medium treated with 10 nM 17β-estradiol for two days, 30 min, steroid-free medium alone 7.11±0.02)?
**A.** 7.03±0.02

**Q.** And the “luminal pHo” value ([1]; hECE cells in steroid-free medium, 0.1 nM 17β-estradiol, decreased from 7.26±0.03)?
**A.** 7.13±0.03

**Q.** What about the “effect on luminal pHo (dose response)” value ([1]; hECE cells in steroid-free medium, 1 nM) of the same molecule?
**A.** reached near saturation

**Q.** And the “effect on luminal pHo (dose response)” value ([1]; hECE cells in steroid-free medium, 100 nM)?
**A.** no additional effect

**Q.** What about the “contra-luminal pHo” value ([1]; hECE cells, steroid-free medium and treatment with 10 nM estradiol, no effect) of the same molecule?
**A.** around 7.25

Reference: patent US20080071190A1, “Timing of Ovulation Based on Vaginal Ph” (priority 2004, published 2008)
